Source: ChEMBL document CHEMBL1145849, “QSAR and the rational design of long-acting dual D2-receptor/beta 2-adrenoceptor agonists” (J Med Chem, 2003)
Values joined by “and” are separate entries in the source; they are usually repeats but may differ in a detail not shown here. Equal entries are not always repeated.

How the values were obtained:
[1] = target: D(2) dopamine receptor (Homo sapiens) (UniProt P14416); test: […] D2 duration was determined using electrically stimulated guinea-pig isolated trachea superfusion system; format: functional; conditions: Cavia porcellus, target entry is the homologue from another species
[2] = target: Beta-2 adrenergic receptor (Cavia porcellus) (UniProt Q8K4Z4)
Description: In vitro beta-2 duration was determined using electrically stimulated guinea-pig isolated trachea superfusion system

[3] = target: Beta-2 adrenergic receptor (Cavia porcellus) (UniProt Q8K4Z4); conditions: Trachea
Description: Beta-2-adrenoceptor potency was determined in rings of guinea-pig isolated trachea

[4] = physchem; conditions: octanol/water, pH 7.4, logD
[5] = physchem
Description: Ionization constant (pKa)

[6] = physchem; remark: listed apart in the source
Description: (§1) Classification of ionization constant (pKa)

[7] = physchem; remark: listed apart in the source
Description: as §1

[8] = octanol/water, pH 7.4

Chain of D(2) dopamine receptor (Homo sapiens) (P14416 whole entry, the tested form may be a part): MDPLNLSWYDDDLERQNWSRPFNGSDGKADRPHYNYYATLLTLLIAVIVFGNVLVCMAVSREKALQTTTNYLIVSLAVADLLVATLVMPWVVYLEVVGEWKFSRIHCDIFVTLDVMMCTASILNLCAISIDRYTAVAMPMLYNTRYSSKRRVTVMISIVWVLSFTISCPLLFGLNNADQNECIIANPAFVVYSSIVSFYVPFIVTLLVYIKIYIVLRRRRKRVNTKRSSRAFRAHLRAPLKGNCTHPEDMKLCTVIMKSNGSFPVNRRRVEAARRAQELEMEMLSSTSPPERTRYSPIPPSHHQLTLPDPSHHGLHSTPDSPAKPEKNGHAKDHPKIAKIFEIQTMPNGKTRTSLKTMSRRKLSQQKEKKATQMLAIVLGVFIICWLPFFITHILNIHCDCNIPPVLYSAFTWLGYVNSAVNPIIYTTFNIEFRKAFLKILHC
Chain of Beta-2 adrenergic receptor (Cavia porcellus) (Q8K4Z4 whole entry, looked up): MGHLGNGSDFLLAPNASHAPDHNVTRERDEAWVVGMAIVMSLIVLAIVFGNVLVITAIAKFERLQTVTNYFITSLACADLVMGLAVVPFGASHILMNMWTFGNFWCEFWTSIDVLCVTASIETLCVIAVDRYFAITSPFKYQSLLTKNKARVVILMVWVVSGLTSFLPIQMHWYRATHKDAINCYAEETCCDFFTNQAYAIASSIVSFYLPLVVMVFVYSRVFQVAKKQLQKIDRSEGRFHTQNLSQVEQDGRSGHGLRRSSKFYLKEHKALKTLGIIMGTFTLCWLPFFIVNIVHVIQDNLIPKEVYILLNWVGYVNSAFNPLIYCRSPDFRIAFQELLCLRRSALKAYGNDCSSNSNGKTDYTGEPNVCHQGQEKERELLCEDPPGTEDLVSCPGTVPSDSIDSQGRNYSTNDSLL

Row | Structure (SMILES) | D2 duration [1] [min] | Beta2 duration [2] | p[A]50 [3] | logD [4] | pKa [5] | pKa [6] | pKa [7] | logD [8]
1 | O=S(=O)(CCCOCCc1ccc(Br)cc1)CCNCCc1ccc(O)c2nc(O)sc12 | – | > 180 min | 7.4 | 3.36 | > 8 | – | – | –
2 | O=C(NCCCCCCNCCc1ccc(O)c2nc(O)sc12)Nc1ccccc1 | – | 60 min | 7.01 | 1.26 | > 8 | – | – | –
3 | Nc1ccccc1CCOCCS(=O)(=O)CCCNCCc1ccc(O)c2nc(O)sc12 | – | 33 min | 7.46 | 1.17 | > 8 | – | – | –
4 | O=S(=O)(Nc1ccc(CCOCCCSCCNCCc2ccc(O)c3nc(O)sc23)cc1)c1ccccc1 | – | > 180 min | 7.57 | 3.52 | > 8 | – | – | –
5 | Oc1nc2c(O)ccc(CCNCCCSCCOCCc3ccccn3)c2s1 | – | 75 min | 7.32 | 0.83 | > 8 | – | – | –
6 | Oc1nc2c(O)ccc(CCNCCCSCCOCCOc3ccccc3)c2s1 | – | > 180 min | 7.06 | 2.11 | > 8 | – | – | –
7 | O=c1[nH]c2c(O)ccc(CCNCCCSCCOCCc3ccccc3)c2s1 | 270 | > 180 min | 8.02 | 2.31 | > 8 | – | 10.2 | 3.53
8 | CC(C)(CNCCc1ccc(O)c2nc(O)sc12)CSCCOCCc1ccccc1N | – | > 180 min | 7.13 | 3.44 | > 8 | – | – | –
9 | O=S(=O)(CCCNCCc1ccc(O)c2nc(O)sc12)CCOCCOc1ccccc1 | – | 52 min | 7.44 | 1.13 | > 8 | – | – | –
10 | O=c1[nH]c2c(O)ccc(CCNCCS(=O)(=O)CCCOCCc3ccccc3)c2s1 [SIBENADET] | – | 146 min | 8.09 | 2.51 | < 8 | 8.55 | 6.58 | –
11 | O=S(=O)(CCCOCCc1nccs1)CCNCCc1ccc(O)c2nc(O)sc12 | – | 45 min | 7.72 | 2.35 | < 8 | – | – | –
12 | Oc1nc2c(O)ccc(CCNCCCCCCNCC(F)(F)c3ccccc3)c2s1 | – | > 180 min | 6.84 | 1.57 | > 8 | – | – | –
13 | O=S(=O)(CCCOCCc1ccc(NS(=O)(=O)c2ccccc2)cc1)CCNCCc1ccc(O)c2nc(O)sc12 | – | > 180 min | 7.7 | 2.88 | < 8 | – | – | –
14 | O=c1[nH]c2c(O)ccc(CCNCCCS(=O)(=O)CCCOCCc3ccccc3)c2s1 | 270 | 172 min and 80 min | 8.24 | 1.65 | > 8 | – | – | 1.34
15 | O=S(=O)(CCCOCCc1ccc(O)cc1)CCNCCc1ccc(O)c2nc(O)sc12 | – | 32 min | 8.65 | 1.91 | < 8 | – | – | –
16 | O=S(=O)(CCCOCCc1ccccn1)CCNCCc1ccc(O)c2nc(O)sc12 | – | 24 min | 7.49 | 0.95 | < 8 | – | – | –

Row | Structure (SMILES) | D2 duration [1] [min] | Beta2 duration [2] | p[A]50 [3] | logD [4] | pKa [5] | pKa [6] | pKa [7] | logD [8]
17 | O=[N+]([O-])c1ccc(CCOCCCS(=O)(=O)CCNCCc2ccc(O)c3nc(O)sc23)cc1 | – | 77 min | 6.73 | 2.32 | < 8 | – | – | –
18 | Oc1nc2cccc(CCNCCCCCCNCCc3ccc(O)c4nc(O)sc34)c2s1 | – | 45 min | 7.86 | 1 | > 8 | – | – | –
19 | Oc1nc2c(O)ccc(CCNCCSCCCOCCCc3ccccc3)c2s1 | – | > 180 min | 7.27 | 3.61 | > 8 | – | – | –
20 | O=C(CCCCCNCCc1ccc(O)c2nc(O)sc12)NCCc1ccccc1 | 90 | 22 min | 7.18 | 1.29 | > 8 | – | – | –
21 | Cc1cnc(CCOCCCS(=O)(=O)CCNCCc2ccc(O)c3nc(O)sc23)s1 | – | 126 min | 7.61 | 2.87 | < 8 | – | – | –
22 | O=S(=O)(CCCCCCNCCc1ccc(O)c2nc(O)sc12)CCc1ccccc1 | – | > 180 min | 7 | 1.44 | > 8 | – | – | –
23 | Oc1nc2c(O)ccc(CCNCCSCCCOCCc3ccccn3)c2s1 | – | > 180 min | 7.51 | 1.75 | > 8 | – | – | –
24 | O=S(=O)(CCCNCCc1ccc(O)c2nc(O)sc12)CCOCCc1cccc2ccccc12 | – | > 180 min | 7.73 | 2.54 | > 8 | – | – | –
25 | Oc1nc2c(O)ccc(CCNCCCSCCOCCCc3ccccc3)c2s1 | – | > 180 min | 7.86 | 2.8 | > 8 | – | – | –
26 | O=S(=O)(CCCNCCc1ccc(O)c2nc(O)sc12)CCNCCOc1ccccc1 | – | 28 min | 6.73 | 0.9 | > 8 | – | – | –
27 | O=S(=O)(CCCNCCc1ccc(O)c2nc(O)sc12)CCSCCc1ccccc1 | – | > 180 min | 7.57 | 2.34 | > 8 | – | – | –
28 | CC(C)(CCCCOCCc1ccc(O)cc1)CNCCc1ccc(O)c2nc(O)sc12 | – | > 180 min | 9.03 | – | > 8 | – | – | –
29 | O=[N+]([O-])c1ccc(CCOCCCSCCNCCc2ccc(O)c3nc(O)sc23)cc1 | – | > 180 min | 6.78 | 3.29 | > 8 | – | – | –
30 | CN(CCCS(=O)(=O)CCOCCc1ccccc1)CCc1ccc(O)c2nc(O)sc12 | 150 | – | – | – | – | – | – | –
31 | NC(=O)c1ccc(CCOCCCS(=O)(=O)CCNCCc2ccc(O)c3nc(O)sc23)cc1 | – | 50 min | 7.54 | 1.1 | < 8 | – | – | –

Next, values leading:

Row | D2 duration [1] [min] | Beta2 duration [2] | p[A]50 [3] | logD [4] | pKa [5] | pKa [6] | pKa [7] | logD [8] | Structure (SMILES)
32 | 270 | 140 min | 7.93 | 1.37 | > 8 | 7.35 | 9.07 | – | O=S(=O)(CCCNCCc1ccc(O)c2nc(O)sc12)CCOCCc1ccccc1
33 | – | 32 min | 7.01 | 0.88 | > 8 | – | – | – | Oc1nc2c(O)ccc(CCNCCNCCCOCCc3ccccc3)c2s1
34 | – | 69 min | 7.51 | 1.22 | > 8 | – | – | – | O=S(=O)(CCOCCc1ccccc1)NCCCNCCc1ccc(O)c2nc(O)sc12
35 | 270 | > 180 min | 8.23 | 2.73 | > 8 | – | – | – | Oc1nc2c(O)ccc(CCNCCCCCCOCCc3ccccc3)c2s1
36 | 150 | 57 min | 9.27 | 1.34 | > 8 | 7.62 | 8.75 | – | O=C(CCOCCc1ccccc1)NCCNCCc1ccc(O)c2nc(O)sc12
37 | – | > 180 min | 8.82 | 1.19 | > 8 | 7.65 | 9.23 | – | Oc1nc2c(O)ccc(CCNCCCOCCOCCc3ccccc3)c2s1
38 | – | > 180 min | 8.69 | 2.1 | > 8 | – | – | – | O=S(=O)(CCCNCCc1ccc(O)c2nc(O)sc12)CCOCCCc1ccccc1
39 | – | > 180 min | 7.76 | 3.62 | < 8 | – | – | – | O=S(=O)(CCCOCCCCc1ccccc1)CCNCCc1ccc(O)c2nc(O)sc12
40 | – | > 180 min | 7.03 | 1.73 | > 8 | – | – | – | Oc1nc2c(O)ccc(CCNCCCOCCSCCc3ccccc3)c2s1
41 | – | 150 min | 8.63 | 1.91 | > 8 | – | – | – | O=C(CCOCCCc1ccccc1)NCCNCCc1ccc(O)c2nc(O)sc12
42 | – | 84 min | 8.47 | 1.12 | > 8 | – | – | – | [O-][S+](CCCNCCc1ccc(O)c2nc(O)sc12)CCOCCc1ccccc1 (configuration not stated)
43 | – | > 1080 min | 7.16 | 2.06 | > 8 | 7.55 | 8.68 | – | Oc1nc2c(O)ccc(CCNCCOCCCOCCc3ccccc3)c2s1
44 | – | > 180 min | 7.77 | 3.26 | > 8 | – | – | – | Oc1nc2c(O)ccc(CCNCCC(F)(F)CCCOCCc3ccccc3)c2s1
45 | – | 157 min | 7.35 | 3.13 | < 8 | – | – | – | O=S(=O)(CCCOCCCc1ccccc1)CCNCCc1ccc(O)c2nc(O)sc12
46 | – | 72 min | 7.4 | 1.11 | > 8 | – | – | – | O=S(=O)(CCCNCCc1ccc(O)c2nc(O)sc12)NCCOCc1ccccc1
47 | – | 71 min | 7.56 | 1.55 | > 8 | – | – | – | O=C(CCCOCCc1ccccc1)NCCNCCc1ccc(O)c2nc(O)sc12
48 | – | > 180 min | 8.36 | 2.86 | > 8 | – | – | – | Oc1nc2c(O)ccc(CCNCCSCCCOCCc3ccccc3)c2s1
49 | – | 135 min | 7.39 | 1.56 | > 8 | 7.5 | 8.58 | – | O=S(=O)(CCOCCc1ccccc1)NCCNCCc1ccc(O)c2nc(O)sc12
50 | – | 79 min | 6.48 | 2.38 | > 8 | – | – | – | O=S(=O)(CCNCCc1ccc(O)c2nc(O)sc12)NCCOCCc1ccccc1
